Like-named read-outs stand apart in the source and are kept apart here.
How the values were obtained:
human Cereblon WT = target: T1, human Cereblon WT (Homo sapiens, UniProt Q96SW2); test: Cereblon binding experiment (HTRF Human Cereblon Binding Kit, competition with XL665-labeled lenalidomide tracer); conditions: 3 h incubation at room temperature, 100% inhibition = 200 μM lenalidomide, read-out: IC50 (binding ability to Cereblon)
T1 construct: purchased
Description: The detection kit (HTRF Human Cereblon Binding Kits) used in the experiment was a detection method for the quantitative measurement of Cereblon WT ligands using HTRF® technology. The detection principle was based on HTRF technology, where the specifically labeled GST antibody (Euroum Cryptate, donor) simultaneously bound to the GST-labeled human Cereblon WT ligand and the XL665-labeled lenalidomide tracer (acceptor). The donor was excited by a light source to induce fluorescence resonance energy transfer (FRET) to the acceptor, and the acceptor emitted fluorescence at a specific wavelength of 665 nm. After the addition of a compound, the compound competed with the XL665-labeled lenalidomide to prevent FRET from occurring. […]
The compounds of the present disclosure were dissolved in DMSO at a stock concentration of 10 mM. […] The HTRF signal in each well was measured using an Envision plate reader. […]
The ratio of acceptor to donor emission signals was calculated for each well: […]
(§1) Data analysis was performed by GraphPad Prism 9. The concentration-response curves were obtained using non-linear four-parameter fitting, and the IC50 for the compound was calculated: […]
The binding ability of the compounds of the present disclosure to Cereblon was determined through the above test, and the measured IC50 values were shown in Table 1.

MV-4-11 cells = test: Antiproliferative activity for MV-4-11 cells (CellTiter-Glo, 3 days); format: cell-based; conditions: Homo sapiens, MV4-11, 72 h, read-out: IC50 (antiproliferative activity for MV-4-11 cells)
Protocol: The medium of the target cells MV-4-11 (CBP60522, Cobioer) was removed, and PBS was added for rinsing once, followed by digestion with trypsin (Trypsin-EDTA (0.25%)) for 5 min. After the digestion, 10 mL of a complete medium (IMDM+10% FBS) was added to neutralize the trypsin. The cells were then pipetted and collected, centrifuged at 1000 rpm for 5 min, and counted. The cell density was adjusted to 30,000 cells/mL. 90 μL of the cell suspension was added to a 96-well low-adsorption plate. 200 μL of PBS was added to the edge wells of the 96-well plate. The plate was centrifuged at 1000 rpm for 5 min to form cell spheroids, which were then incubated in a cell incubator overnight. […]
The cells were removed from the incubator and allowed to return to room temperature within 30 min. 50 μL of the CellTiter-Glo® Cell Viability Assay reagent was added, and the plate was shaken to mix thoroughly for 10 min before it was read on the Envision microplate reader.
The antiproliferative activity of the compounds of the present disclosure for MV-4-11 cells was determined through the above test, and the cell growth inhibition rate for each sample well was calculated based on the raw data.
as §1

BRD4 = target: T2, BRD4 (Homo sapiens, UniProt O60885); test: Degradation activity for BRD4 proteins in MV-4-11 cells (Western blot, 6 h); format: cell-based; conditions: for DC50: read-out: DC50 of BRD4 protein degradation
T2 construct: The degradation activity for BRD4 proteins in MV-4-11 cells; host or cells: MV-4-11
Protocol: The medium of MV-4-11 (CBP60522, Cobioer) was removed, and PBS was added for rinsing once, followed by digestion with trypsin (Trypsin-EDTA (0.25%)) for 5 min. After the digestion, 10 mL of a complete medium (an IMDM medium containing 10% FBS) was added to neutralize the trypsin. The cells were then pipetted and collected, centrifuged at 1000 rpm for 5 min, and counted. The cell density was adjusted to 500,000 cells/mL. 2 mL of the cell suspension was added to a 12-well plate, and the plate was incubated in a cell incubator overnight.
The compounds of the present disclosure were dissolved in DMSO at a stock concentration of 10 mM. The compound stock solution was subjected to gradient dilution (4-fold dilution), resulting in 8 concentration points. DMSO was used as the negative control group, and the DMSO content was 0.1%. After mixing the compound with the cell suspension thoroughly, the mixture was incubated at 37° C. with 5% CO2 for 6 h.
Six hours after drug treatment, the supernatant was discarded, and the cells were washed with 1000 μL of pre-cooled PBS. 100 μL of RIPA lysis buffer (25 mM Tris-HCl, pH=7.5, 150 mM NaCl, 1% NP-40, 1 mM EDTA, pH=8.0, 1 mM PMSF, 1 mM Na3VO4, and 1× Protease Inhibitor Cocktail-P2714, Sigma) was added and placed on ice for lysis for 10 min. The lysed cell samples were collected and centrifuged at 12000 rpm at 4° C. for 30 min. The concentration of each protein sample was determined using the Pierce BCA kit for protein quantification. An appropriate amount of 5×SDS-PAGE protein loading buffer was added to the collected protein samples, and the mixtures were then heated in a metal bath at 100° C. for 10 min to fully denature the proteins. The protein samples were loaded into the SDS-PAGE gel loading wells and electrophoresed at a constant voltage of 120 V for 60 min. After the electrophoresis, the gel was transferred to a PVDF membrane using a Bio-bad transfer apparatus. After the transfer, the band was cut according to the size of the target protein and blocked with 5% BSA (prepared by dissolving 5 g of BSA in 100 mL of TBST) at room temperature for 1 h. […] The proteins were detected using the SuperSignal West Atto ultra-sensitive ECL luminescent liquid.
The degradation activity for BRD4 proteins in MV-4-11 cells by the compounds of the present disclosure was determined through the above test. The gray values of the target sample bands were read using Image J software, and the protein degradation rate for each sample well was calculated based on the raw data.
[formula] • wherein: • All raw data were processed for data analysis using GraphPad Prism 9. The concentration-response curves were obtained using non-linear four-parameter fitting, and the DC50 for the compound was calculated: […]

[1] = MV-4-11 cells, 6 h, Western blot

Compound | IC50 (human Cereblon WT) | DC50 (BRD4; [1]) | also measured
Cn1c(=O)n(C2CCC(=O)NC2=O)c2ccc3ccccc3c21 (centres unmarked) [Compound 1, 3-(1-methyl-2-oxo-1,2-dihydro-3H-naphtho[1,2-d]imidazol-3-yl)piperidine-2,6-dione] | 188 nM |  | 
Cc1sc2c(c1C)C(c1ccc(Cl)cc1)=N[C@@H](CC(=O)NCCCCCC(=O)NCc1ccc3ccc4c(c3c1)n(C)c(=O)n4C1CCC(=O)NC1=O)c1nnc(C)n1-2 (stereo partly drawn) [Compound 2, 6-(2-((S)-4-(4-chlorophenyl)-2,3,9-trimethyl-6H-thieno[3,2-f][1,2,4]triazolo[4,3-a][1,4]diazepin-6-yl)acetamido)-N-((3-(2,6-dioxopiperidin-3-yl)-1-methyl-2-oxo-2,3-dihydro-1H-naphtho[1,2-d]imidazol-8-yl)methyl)hexanamide] |  | 2.19 nM | IC50 (MV-4-11 cells): 3.8 nM; Dmax (BRD4; MV4-11, read-out: Maximum degradation rate (%) of BRD4 protein): 85.6%
Cc1sc2c(c1C)C(c1ccc(Cl)cc1)=N[C@@H](CC(=O)NCCCCCC(=O)NCc1cccc3c1ccc1c3n(C)c(=O)n1C1CCC(=O)NC1=O)c1nnc(C)n1-2 (stereo partly drawn) [Compound 3, 6-(2-((S)-4-(4-Chlorophenyl)-2,3,9-trimethyl-6H-thieno[3,2-f][1,2,4]triazolo[4,3-a][1,4]diazepin-6-yl)acetamido)-N-((3-(2,6-dioxopiperidin-3-yl)-1-methyl-2-oxo-2,3-dihydro-1H-naphtho[1,2-d]imidazol-6-yl)methyl)hexanamide] |  | 11.2 nM | IC50 (MV-4-11 cells; MV-4-11 cells, 3 days, CellTiter-Glo): 14.1 nM; Dmax (BRD4; MV4-11, MV-4-11 cells, 6 h, Western blot, read-out: Maximum degradation rate (%) of BRD4 protein): 74.3%
Cn1c(=O)n(C2CCC(=O)NC2=O)c2ccc3c(c21)CNCC3 (centres unmarked) [Compound 8, 3-(1-methyl-2-oxo-1,2,6,7,8,9-hexahydro-3H-imidazo[4,5-h]isoquinolin-3-yl)piperidine-2,6-dione, reference compound] | 8700 nM |  | 

Source: patent US20260098043A1, “POLYCYCLIC COMPOUND AND USE THEREOF” (HAINAN SIMCERE ZAIMING PHARMECEUTICAL CO., LTD., priority 2022, published 2026)
